Experimental data from US20080089874A1, “DIRECTED DIFFERENTIATION AND MATURATION OF STEM CELL-DERIVED CARDIOMYOCYTES” (The Regents of the University of California, priority 2006, published 2008).
Entries after “also recorded” stand apart in the source; their conditions may differ.

Key:
[1] = test system: adult guinea pig LVCMs; format: cell-based
[2] = test system: ACMs; format: cell-based, guinea pig

CC(C)NCC(O)c1ccc(O)c(O)c1 (centres unmarked) [isoproterenol]
MDP [1]: −55.5±0.7 mV | TOP [1]: −45.2±0.4 mV | cycle length [1]: 182 ± 4.1 ms | increase in firing rate [1]: 27% | midpoint (V1/2) of steady-state activation [1]: −56.9±1.6 mV | phase 4 slope [1]: 350±12 mV/s

ZD7288
APD50 [1]: 272 ± 31 ms | effect of ZD7288 on induced If and AP firing [1]: blocked; also recorded: silenced | sensitivity of Ad-CGI-HCN1-induced If to HCN blocker [1]: sensitive | RMP [2]: −47.6±1.2 mV | effect of If suppression on firing [2]: triggered rhythmic firing; also recorded: generated AP

NC1=N[C@H](O)[C@H]2[C@H]3O[C@]4(O)O[C@@H]([C@@H](O)[C@@]2(N1)[C@@H]4O)[C@]3(O)CO [TTX, tetrodotoxin]
AP overshoot [1]: disappeared | change in phase 4 slope and MDP [1]: no statistical difference | cycle length [1]: 328 ± 23 ms | maximal upstroke velocity of AP [1]: 5.3±0.6 V/s | shift in TOP [1]: 17 mV

CC(=O)OCC[N+](C)(C)C [acetylcholine]
MDP [1]: −59.0±1.0 mV | cycle length [1]: 293 ± 16 ms | effect on spontaneous APs [1]: no effect | phase 4 slope [1]: 241±16 mV/s
